Data reported in patent publication US20250332173A1, “COMPOUNDS AND METHODS FOR MODULATING NUCLEIC ACID SPLICING” (REMIX THERAPEUTICS INC., priority 2021, published 2025).

The compounds below were run on Target C (assay: HiBiT protein abundance assay, Target C HiBiT K562 cell line). Settings: Homo sapiens; HiBiT lytic detection, modified K562 cells, 24 hours, top dose 10 μM; read-out: Effect on protein abundance, Target C (IC50).
Format: cell-based
Outline: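 HiBiT knock-in K562 cells (10,000/well) were treated for 24 h at 37 °C with a 10-point 3-fold dilution series, top final concentration 10 μM, DMSO ≤0.25%. Lytic HiBiT luminescence was read, normalized to unmodified K562 and DMSO-treated controls, and IC50 was interpolated from a four-parameter logistic fit.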
For `Cc1c(O)c(-c2nc(C)c3c(=O)n([C@@H]4CCNC5(CC5)C4)ccc3n2)cc2cn(C)nc12` [Compound 1515, (R)-2-(6-hydroxy-2,7-dimethyl-2H-indazol-5-yl)-4-methyl-6-(4-azaspiro[2.5]octan-7-yl)pyrido[4,3-d]pyrimidin-5(6H)-one], the IC50 was 100 to 1000 nM. Work on `Cn1cc2ccc(-n3cnc4ccc(NC5CCNCC5)cc4c3=O)cc2n1` [Compound 2164] yielded an IC50 of over 10000 nM. `Cc1cn2nc(-c3ccc4c(=O)n([C@H]5CCN(C)C6(CC6)C5)ncc4n3)cc(C)c2n1` [Compound 1533] was tested, and the IC50 was 100 to 1000 nM. Work on `Cc1cn2cc(-n3cnc4ccc(N(C)C5CCNCC5)cc4c3=O)cc(F)c2n1` [Compound 2200] yielded an IC50 of over 10000 nM. Compound `Cc1c(O)c(-c2ccc3c(=O)n(C4CCNC4)cc(C)c3n2)cc2cn(C)nc12` (stereo not drawn) [Compound 1467] has an IC50 of 1000 to 10000 nM. In the case of `Cc1cn2nc(-n3cnc4ccc(N5CCNCC5)cc4c3=O)cc(C)c2n1` [Compound 2201], the IC50 is reported as over 10000 nM. For `Cc1cc(-c2ccc3c(=O)[nH]c(N4CCNCC4)nc3c2)cc2cn(C)nc12` [Compound 2211], the IC50 was over 10000 nM. `Cc1cn2nc(-c3ccc4c(=O)n(C5CCN(CCF)C6(CC6)C5)ncc4n3)cc(C)c2n1` (stereo not drawn) [Compound 1542, 2-(2,8-dimethylimidazo[1,2-b]pyridazin-6-yl)-6-[4-(2-fluoroethyl)-4-azaspiro[2.5]octan-7-1]pyrido[2,3-d]pyridazin-5-one] showed an IC50 of 100 to 1000 nM. `Cn1cc2cc(-c3ncc4c(=O)n(C56CCC(N)(CC5)C6)ccc4n3)c(O)c(F)c2n1` [Compound 1468] gave an IC50 of 100 to 1000 nM. In the case of `CN(c1ccc2ncn(-c3cc(F)c4nn(C)cc4c3)c(=O)c2c1)C1CCNCC1` [Compound 2198], the IC50 is reported as over 10000 nM. Compound `Cn1cc2cc(-c3ncc4c(=O)n(C56CCC(N)(CC5)C6)ccc4n3)c(O)cc2n1` [Compound 1470] has an IC50 of 1000 to 10000 nM. `Cc1cn2cc(-n3cnc4ccc(N5CCN(C)CC5)cc4c3=O)cc(F)c2n1` [Compound 2197] was tested, and the IC50 was 1000 to 10000 nM. For `Cc1cn2nc(-c3ccc4c(=O)n(C5CCNC6(CCC6)C5)ncc4n3)cc(C)c2n1` (stereo not drawn) [Compound 1553], the IC50 was 1000 to 10000 nM. `Cc1cn2nc(-c3ccc4c(=O)n([C@H]5CCN(C)[C@@H](C)C5)ncc4n3)cc(C)c2n1` [Compound 1528, 2-(2,8-dimethylimidazo[1,2-b]pyridazin-6-yl)-6-(1,2-dimethyl-4-piperidyl)pyrido[2,3-d]pyridazin-5-one] was tested, and the IC50 was 100 to 1000 nM. For `COc1cc(-c2ccc3c(=O)n([C@H]4CCN[C@@H](C)C4)ccc3n2)nn2cc(C)nc12` [Compound 1519, 2-(8-methoxy-2-methyl-imidazo[1,2-b]pyridazin-6-yl)-6-[(2S,4S)-2-methyl-4-piperidyl]-1,6-naphthyridin-5-one], the IC50 was under 100 nM. For `Cc1cn2nc(-c3ccc4c(=O)n([C@@H]5CCNC6(CCC6)C5)ncc4n3)cc(C)c2n1` [Compound 1545, 6-[(8R)-5-azaspiro[3.5]nonan-8-yl]-2-(2,8-dimethylimidazo[1,2-b]pyridazin-6-yl)pyrido[2,3-d]pyridazin-5-one], the IC50 was under 100 nM. Compound `Cc1c(O)c(-c2ncc3c(=O)n([C@@H]4CC[C@H](N)C4)ccc3n2)cc2cn(C)nc12` [Compound 1477] has an IC50 of 100 to 1000 nM. `Cc1cn2cc(-c3ncc4c(=O)n(C56CCC(N)(CC5)C6)ccc4n3)cc(F)c2n1` [Compound 1469, 6-(4-aminonorbornane-1-yl)-2-(8-fluoro-2-methyl-imidazo[1,2-a]pyridin-6-yl)pyrido[4,3-d]pyrimidin-5-one] showed an IC50 of 1000 to 10000 nM. For `Cc1c(O)c(-c2ncc3c(=O)n([C@H]4CCNC5(CC5)C4)ccc3n2)cc2cn(C)nc12` [Compound 1512], the IC50 was 100 to 1000 nM. In the case of `Cc1cc(-c2ccc3ncn(C4CCNCC4)c(=O)c3c2)cc2cn(C)nc12` [Compound 2169], the IC50 is reported as over 10000 nM. `Cc1cn2nc(-c3ccc4c(=O)n([C@@H]5CCN(C)[C@H](C)C5)ncc4n3)cc(C)c2n1` [Compound 1527] showed an IC50 of 100 to 1000 nM. In the case of `Cc1c(O)c(-c2ncc3c(=O)n([C@@H]4C[C@H]5COC[C@@H](C4)N5)ccc3n2)cc2cn(C)nc12` [Compound 1471], the IC50 is reported as 100 to 1000 nM. `Cc1cn2nc(-c3ccc4c(=O)n(C5CCN(CC6CC6)C6(CC6)C5)ncc4n3)cc(C)c2n1` (stereo not drawn) [Compound 1543, 6-[4-(cyclopropylmethyl)-4-azaspiro[2.5]octan-7-yl]-2-(2,8-dimethylimidazo[1,2-b]pyridazin-6-yl)pyrido[2,3-d]pyridazin-5-one] gave an IC50 of 100 to 1000 nM. Compound `Cc1cc(-c2nc3cc(N4CCNCC4)ccc3c(=O)[nH]2)cc2cn(C)nc12` [Compound 2213] has an IC50 of over 10000 nM. With `Cc1cc(-c2ccc3c(=O)[nH]c(N4CCN(C)CC4)nc3c2)cc2cn(C)nc12` [Compound 2212] the IC50 was over 10000 nM. `CN1CCC(Nc2ccc3ncn(-c4ccc5nn(C)cc5c4)c(=O)c3c2)CC1` [Compound 2171] showed an IC50 of over 10000 nM. In the case of `CCN1CC[C@@H](n2ncc3nc(-c4cc(C)c5nc(C)cn5n4)ccc3c2=O)CC12CC2` [Compound 1530], the IC50 is reported as under 100 nM. For `Cc1cn2nc(-n3cnc4ccc(N5CCN(C)CC5)cc4c3=O)cc(C)c2n1` [Compound 2202], the IC50 was 1000 to 10000 nM. `CCN1CC[C@H](n2ncc3nc(-c4cc(C)c5nc(C)cn5n4)ccc3c2=O)CC12CC2` [Compound 1531] was tested, and the IC50 was 100 to 1000 nM. `Cc1cn2cc(-n3cnc4ccc(N5CCNCC5)cc4c3=O)cc(F)c2n1` [Compound 2195] showed an IC50 of over 10000 nM.
